We go through eleven compounds from ChEMBL document CHEMBL1201862, “PubChem BioAssay data set” (2004).

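How tested: cells in 96-well plates exposed to compound for 48 hours at five concentrations. Abbreviation: GI50, concentration required for 50% inhibition of growth.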 Active and inactive are the calls of the source. Cut-off read from the data, not from the text of the source: active = GI50 up to about 1.1 µM and inactive = higher.

Test systems include A498; DU-145; HCT-15; HOP-92; IGROV-1; K562; KM12; MCF7; MDA-MB-435; MDA-N; MOLT-4; NCI-H522; NCI/ADR-RES; RXF 393; SF-539; SK-MEL-28; SNB-19; SNB-75; T47D; UO-31.
Common to all, as to test: NCI tumour cell line growth inhibition, 48 h

Consider `Oc1ccc(Cc2cc(Cl)cc(Cl)c2O)cc1Cl`, for which the GI50 in the assay on A498 is 19.5 µM (inactive); in the assay with DU-145 it was 10.1 µM (inactive); in the assay on HCT-15 it was 16.9 µM; in the assay on HOP-92, 18.2 µM (inactive); with IGROV-1 it was 17.9 µM (inactive); in the assay with K562 it was 15.5 µM (inactive). The GI50 in the assay on KM12 is 20 µM (inactive); in the assay on MCF7, 18.1 µM (inactive); in the assay with MDA-MB-435 it was 8.83 µM (inactive); in the assay with MDA-N, 8.93 µM (inactive); with MOLT-4, 20 µM (inactive); in the assay on NCI-H522, 16.7 µM (inactive). In addition, the GI50 with NCI/ADR-RES was 18.3 µM (inactive); in the assay on RXF 393, 13.4 µM (inactive); in the assay with SF-539, 17.1 µM (inactive); in the assay on SK-MEL-28, 17.3 µM (inactive); with SNB-19, 16.9 µM (inactive); in the assay with SNB-75, < 0.01 µM (active). For the same compound, the GI50 with T47D is 18.4 µM (inactive); in the assay with UO-31 it was 15.7 µM (inactive).

On to `C1CNCCN2CCCNCCN(C1)CC2`, for which the GI50 was > 100 µM (inactive) in the assay on A498; > 100 µM (inactive) in the assay on DU-145; > 100 µM with HCT-15; > 100 µM (inactive) in the assay on HOP-92; > 100 µM (inactive) with IGROV-1; > 100 µM (inactive) in the assay on KM12. In addition, the GI50 in the assay on MCF7, in the assay with MDA-MB-435, with MDA-N, in the assay on MOLT-4, in the assay on NCI-H522 and with NCI/ADR-RES was > 100 µM (inactive) each time. Besides, the GI50 in the assay with RXF 393, in the assay with SF-539, in the assay with SK-MEL-28, in the assay on SNB-19, in the assay with SNB-75 and with T47D was > 100 µM (inactive) each time. Also, the GI50 in the assay on UO-31 is > 100 µM (inactive).

As for `O=C(/C=C/c1ccc(-c2ccccc2)cc1)NCc1ccc(C(=O)NCc2ccccc2)cc1`, the GI50 was > 100 µM (inactive) in the assay with A498; > 100 µM (inactive) in the assay with DU-145; > 100 µM with HCT-15; > 100 µM (inactive) in the assay with HOP-92; > 100 µM (inactive) with IGROV-1; > 100 µM (inactive) in the assay on KM12. Further, the GI50 with MCF7 is > 100 µM (inactive); with MDA-MB-435 it was > 100 µM (inactive); in the assay on MDA-N it was > 100 µM (inactive); with NCI-H522, > 100 µM (inactive); in the assay with NCI/ADR-RES, > 100 µM (inactive); with RXF 393 it was 12.7 µM (inactive). Moreover, the GI50 in the assay with SF-539, in the assay with SK-MEL-28, in the assay with SNB-19, with SNB-75, in the assay on T47D and in the assay on UO-31 was > 100 µM (inactive) each time.

Take `Cc1sc2nc3n(c(=O)c2c1C)N=C(c1ccccc1)CS3`: the GI50 with A498 is > 100 µM (inactive); in the assay with DU-145, > 100 µM (inactive); in the assay with HCT-15, > 100 µM; in the assay with HOP-92, > 100 µM (inactive); in the assay on IGROV-1 it was > 100 µM (inactive); with K562, > 100 µM (inactive). Further, the GI50 in the assay on KM12, in the assay with MCF7, in the assay with MDA-MB-435, with MDA-N, with MOLT-4 and in the assay with NCI-H522 was > 100 µM (inactive) each time. Besides, the GI50 in the assay with NCI/ADR-RES, with RXF 393, in the assay on SF-539, in the assay on SK-MEL-28, with SNB-75 and with T47D was > 100 µM (inactive) in each case. The GI50 in the assay on UO-31 was > 100 µM (inactive).

Take `CC(C)(C)OC(=O)n1cc(C2CN(O)C(=O)C23CCC(=O)N3Cc2ccccc2)c2ccccc21` (stereo unspecified): the GI50 in the assay on A498 was 24.8 µM (inactive); in the assay with DU-145, 60.1 µM (inactive); in the assay on HOP-92 it was 4.46 µM (inactive); in the assay with IGROV-1 it was 18.8 µM (inactive); with K562, 78.7 µM (inactive); with KM12, 44.1 µM (inactive). Further, the GI50 in the assay with MCF7 was 33.5 µM (inactive); in the assay with MDA-MB-435, 28.6 µM (inactive); in the assay on MDA-N it was 52.7 µM (inactive); in the assay on MOLT-4 it was > 100 µM (inactive); in the assay with NCI-H522 it was 14.1 µM (inactive); with NCI/ADR-RES, 69.5 µM (inactive). Further, the GI50 was 68.4 µM (inactive) in the assay with RXF 393; 49 µM (inactive) in the assay with SF-539; 68.7 µM (inactive) with SNB-19; 32.7 µM (inactive) in the assay with SNB-75; 50.6 µM (inactive) in the assay on T47D; 40.7 µM (inactive) in the assay on UO-31.

In the case of `Cc1cn(C2CC(N=[N+]=[N-])C(CO)O2)c(=O)n(CCCCBr)c1=O` (stereo unspecified), the GI50 is > 100 µM (inactive) in the assay with A498; > 100 µM (inactive) in the assay on DU-145; > 100 µM in the assay on HCT-15; > 100 µM (inactive) in the assay with HOP-92; > 100 µM (inactive) with IGROV-1; > 100 µM (inactive) in the assay with K562. Also, the GI50 was > 100 µM (inactive) in the assay on KM12; 60.5 µM (inactive) in the assay on MCF7; 80.4 µM (inactive) with MDA-MB-435; > 100 µM (inactive) in the assay on MDA-N; 95.1 µM (inactive) with MOLT-4; > 100 µM (inactive) in the assay on NCI-H522. Further, the GI50 was 63.8 µM (inactive) with NCI/ADR-RES; > 100 µM (inactive) with RXF 393; > 100 µM (inactive) with SF-539; > 100 µM (inactive) with SK-MEL-28; > 100 µM (inactive) in the assay with SNB-19; 63.2 µM (inactive) in the assay with SNB-75. Besides, the GI50 in the assay on T47D and in the assay with UO-31 was > 100 µM (inactive) throughout.

For `CCC1=C(CC2NCCc3ccccc32)CC2c3cc(OC)c(OC)cc3CCN2C1` (stereo unspecified), the GI50 with A498 is 0.83 µM (active); in the assay on DU-145, 0.356 µM (active); with HCT-15 it was 0.552 µM; in the assay on HOP-92, 0.675 µM (active); with IGROV-1, 0.693 µM (active); in the assay with K562, 0.286 µM (active). The GI50 in the assay on KM12 was 0.443 µM (active); in the assay with MCF7, 0.292 µM (active); in the assay with MDA-MB-435, 0.327 µM (active); with MDA-N, 0.452 µM (active); with MOLT-4, 0.276 µM (active); with NCI-H522, 0.316 µM (active). Further, the GI50 was 1.3 µM (inactive) with NCI/ADR-RES; 0.635 µM (active) in the assay on RXF 393; 0.578 µM (active) in the assay on SF-539; 1.16 µM (inactive) in the assay with SK-MEL-28; 0.614 µM (active) with SNB-19; 0.531 µM (active) with SNB-75. Also, the GI50 was 0.514 µM (active) in the assay on T47D and 0.736 µM (active) in the assay on UO-31.

Turning to `CCCc1cc(=O)oc2c(C=O)c(O)cc(O)c12`, the GI50 in the assay on A498 was 19.5 µM (inactive); in the assay with DU-145 it was 27.5 µM (inactive); in the assay on HCT-15 it was 26.4 µM; with HOP-92 it was 18.7 µM (inactive); with IGROV-1, 30.9 µM (inactive); with K562 it was 57.4 µM (inactive). The GI50 is 22.7 µM (inactive) with KM12; 27 µM (inactive) in the assay with MCF7; 21.8 µM (inactive) in the assay on MDA-MB-435; 22.3 µM (inactive) with MDA-N; 23.3 µM (inactive) in the assay with MOLT-4; 15.1 µM (inactive) in the assay with NCI-H522. Further, the GI50 was 27.4 µM (inactive) in the assay with NCI/ADR-RES; 24 µM (inactive) in the assay on RXF 393; 26.7 µM (inactive) with SF-539; 23.2 µM (inactive) in the assay with SK-MEL-28; 25.8 µM (inactive) with SNB-19; 11.3 µM (inactive) in the assay with SNB-75. Further, the GI50 is 23.1 µM (inactive) with T47D and 22.8 µM (inactive) in the assay on UO-31.

Consider `C#C[C@]1(O)CC[C@H]2[C@@H]3CCc4cc(OC(=O)c5cccc6cc7ccccc7nc56)ccc4[C@H]3CC[C@@]21C`, for which the GI50 in the assay on A498 was > 100 µM (inactive); with DU-145, 23.5 µM (inactive); with HCT-15, 26.1 µM; in the assay on HOP-92, 66.5 µM (inactive); with IGROV-1, 14.6 µM (inactive); with K562 it was > 100 µM (inactive). The GI50 in the assay on KM12 is 20 µM (inactive); in the assay on MCF7, 25.2 µM (inactive); in the assay on MDA-MB-435, 31.2 µM (inactive); in the assay with MDA-N, 25.5 µM (inactive); in the assay with MOLT-4 it was 6.98 µM (inactive); with NCI-H522, 15.5 µM (inactive). Further, the GI50 with NCI/ADR-RES was 28.8 µM (inactive); with RXF 393, 44.4 µM (inactive); in the assay with SF-539 it was 31.6 µM (inactive); with SK-MEL-28, 35.9 µM (inactive); in the assay on SNB-19, 50.7 µM (inactive); in the assay with SNB-75 it was 31.2 µM (inactive). Also, the GI50 with T47D is 13.9 µM (inactive).

Consider `Cc1nc(Nc2ccccc2Cl)sc1C(=O)CC(=O)C(N)=O`, for which the GI50 is 19.7 µM (inactive) in the assay on A498; > 100 µM (inactive) with DU-145; 33.7 µM with HCT-15; 7.98 µM (inactive) with HOP-92; 39.3 µM (inactive) with IGROV-1; 33.4 µM (inactive) in the assay on K562. The GI50 in the assay with KM12 is 13.2 µM (inactive); in the assay with MCF7, 29.3 µM (inactive); in the assay with MDA-MB-435, 16 µM (inactive); in the assay on MDA-N, 19.4 µM (inactive); in the assay with MOLT-4, 26.4 µM (inactive); in the assay with NCI-H522, 1.96 µM (inactive). Also, the GI50 in the assay on NCI/ADR-RES was 31.3 µM (inactive); in the assay with RXF 393, 48.8 µM (inactive); in the assay on SF-539, 76.4 µM (inactive); with SNB-19 it was 41 µM (inactive); with SNB-75 it was 6.87 µM (inactive); in the assay with T47D, > 100 µM (inactive). Further, the GI50 in the assay with UO-31 is 21.7 µM (inactive).

In the case of `O=S1(=O)c2ccccc2C(=NO)c2ccccc21`, the GI50 was > 100 µM (inactive) in the assay with A498; > 100 µM (inactive) in the assay on DU-145; > 100 µM with HCT-15; > 100 µM (inactive) in the assay on HOP-92; 64 µM (inactive) in the assay with IGROV-1; 68.2 µM (inactive) in the assay with K562. Moreover, the GI50 in the assay on KM12 is > 100 µM (inactive); in the assay with MCF7 it was > 100 µM (inactive); in the assay with MDA-MB-435 it was > 100 µM (inactive); in the assay on MDA-N, > 100 µM (inactive); in the assay on MOLT-4 it was 30.3 µM (inactive); in the assay with NCI-H522, 37.1 µM (inactive). For the same compound, the GI50 with NCI/ADR-RES was 57.3 µM (inactive); in the assay with RXF 393, 24.8 µM (inactive); in the assay on SF-539, > 100 µM (inactive); in the assay with SK-MEL-28 it was > 100 µM (inactive); in the assay on SNB-75 it was > 100 µM (inactive); with T47D, 80 µM (inactive). The GI50 in the assay on UO-31 was 28.2 µM (inactive).
